Laboratory results reported in publication PMC4329189, “A SelB/EF-Tu/aIF2γ-like protein from Methanosarcina mazei in the GTP-bound form binds cysteinyl-tRNA^Cys” (Journal of Structural and Functional Genomics, 2015).

What follows are molecules tested against T1, MM1309 (Methanosarcina mazei, UniProt Q8PXB3) (assay: isothermal titration calorimetry).
T1 construct: gene MM_1309; full length, 350 residues, N-terminal His tag from pET28c kept (tag residues visible in crystal), expressed in E. coli; SeMet-substituted protein for the GMPPNP and GDP crystals
T1 sequence (Q8PXB3 1-350): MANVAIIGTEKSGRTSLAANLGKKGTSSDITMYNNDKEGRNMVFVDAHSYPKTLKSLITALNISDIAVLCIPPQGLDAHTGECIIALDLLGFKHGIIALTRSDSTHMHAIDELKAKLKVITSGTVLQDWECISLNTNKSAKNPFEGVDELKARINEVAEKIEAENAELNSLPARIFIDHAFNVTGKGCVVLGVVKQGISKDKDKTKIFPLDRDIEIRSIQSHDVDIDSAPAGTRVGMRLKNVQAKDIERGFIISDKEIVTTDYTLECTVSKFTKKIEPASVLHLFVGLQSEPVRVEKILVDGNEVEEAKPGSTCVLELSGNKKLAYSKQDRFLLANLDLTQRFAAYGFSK
Format: binding

| Kd | Structure (SMILES) |
| --- | --- |
| 26.2 µM | Nc1nc2c(ncn2[C@@H]2O[C@H](COP(=O)(O)OP(=O)(O)O)[C@@H](O)[C@H]2O)c(=O)[nH]1 [GDP] |
| 222 µM | Nc1nc2c(ncn2[C@@H]2O[C@H](COP(=O)(O)OP(=O)(O)NP(=O)(O)O)[C@@H](O)[C@H]2O)c(=O)[nH]1 [GMPPNP] |
| 0.43 µM | Nc1nc2c(ncn2[C@@H]2O[C@H](COP(=O)(O)OP(=O)(O)OP(=O)(O)O)[C@@H](O)[C@H]2O)c(=O)[nH]1 [GTP] |
